Measured values: ChEMBL document CHEMBL3045168, “Thiamethoxam acts as a target-site synergist of spinosad in resistant strains of Frankliniella occidentalis” (2013)
Converted amounts (≈) assume the structure as drawn.

Assays:
[1] = test system: Frankliniella occidentalis; assay: Insecticidal activity against Frankliniella occidentalis TFB (western flower thrips) in compound treated sweet pepper leaf assessed as mortality at 25 +/- 2 degC by leaf dip method; format: functional; settings: in Capsicum annuum, foliar
[2] = test system: Frankliniella occidentalis; assay: Resistance factor, LC50 for Frankliniella occidentalis PPP (western flower thrips) to LC50 for Frankliniella occidentalis TFR; format: functional
[3] = test system: Frankliniella occidentalis; assay: Resistance factor, LC50 for Frankliniella occidentalis R1S (western flower thrips) to LC50 for Frankliniella occidentalis TFR; format: functional
[4] = test system: Frankliniella occidentalis; assay: Insecticidal activity against Frankliniella occidentalis PPP (western flower thrips) in compound treated sweet pepper leaf assessed as mortality at 25 +/- 2 degC by leaf dip method; format: functional; settings: in Capsicum annuum, foliar
[5] = test system: Frankliniella occidentalis; assay: Insecticidal activity against Frankliniella occidentalis R1S (western flower thrips) in compound treated sweet pepper leaf assessed as mortality at 25 +/- 2 degC by leaf dip method; format: functional; settings: in Capsicum annuum, foliar
[6] = test system: Frankliniella occidentalis; assay: Insecticidal activity against Frankliniella occidentalis TFA (western flower thrips) in compound treated sweet pepper leaf assessed as mortality at 150 mg/l at 25 +/- 2 degC by leaf dip method; format: functional; settings: in Capsicum annuum, foliar
[7] = test system: Frankliniella occidentalis; assay: Insecticidal activity against Frankliniella occidentalis TFB (western flower thrips) in compound treated sweet pepper leaf assessed as mortality at 150 mg/l at 25 +/- 2 degC by leaf dip method; format: functional; settings: in Capsicum annuum, foliar
[8] = test system: Frankliniella occidentalis; assay: Insecticidal activity against Frankliniella occidentalis SPI5 (western flower thrips) in compound treated sweet pepper leaf assessed as mortality at 150 mg/l at 25 +/- 2 degC by leaf dip method; format: functional; settings: SPI5, in Capsicum annuum, foliar
[9] = test system: Frankliniella occidentalis; assay: Insecticidal activity against Frankliniella occidentalis R1 (western flower thrips) in compound treated sweet pepper leaf assessed as mortality at 150 mg/l at 25 +/- 2 degC by leaf dip method; format: functional; settings: R1, in Capsicum annuum, foliar
[10] = test system: Frankliniella occidentalis; assay: Insecticidal activity against Frankliniella occidentalis R1S (western flower thrips) in compound treated sweet pepper leaf assessed as mortality at 1000 mg/l at 25 +/- 2 degC by leaf dip method; settings: in Capsicum annuum, foliar
[11] = test system: Frankliniella occidentalis; assay: Insecticidal activity against Frankliniella occidentalis R1S (western flower thrips) in compound treated sweet pepper leaf assessed as mortality at 50 mg/l at 25 +/- 2 degC by leaf dip method; format: functional; settings: in Capsicum annuum, foliar
[12] = test system: Frankliniella occidentalis; assay: Insecticidal activity against Frankliniella occidentalis TFA (western flower thrips) in compound treated sweet pepper leaf assessed as mortality at 50 mg/l at 25 +/- 2 degC by leaf dip method; format: functional; settings: in Capsicum annuum, foliar
[13] = test system: Frankliniella occidentalis; assay: Resistance factor, LC50 for Frankliniella occidentalis MOJO (western flower thrips) to LC50 for Frankliniella occidentalis TF; format: functional
[14] = test system: Frankliniella occidentalis; assay: Resistance factor, LC50 for Frankliniella occidentalis R1S (western flower thrips) to LC50 for Frankliniella occidentalis TF; format: functional
[15] = test system: Frankliniella occidentalis; assay: Insecticidal activity against Frankliniella occidentalis TF (western flower thrips) in compound treated sweet pepper leaf assessed as mortality at 25 +/- 2 degC by leaf dip method; format: functional; settings: in Capsicum annuum, foliar
[16] = test system: Frankliniella occidentalis; assay: Insecticidal activity against Frankliniella occidentalis MOJO (western flower thrips) in compound treated sweet pepper leaf assessed as mortality at 25 +/- 2 degC by leaf dip method; format: functional; settings: in Capsicum annuum, foliar
[17] = test system: Frankliniella occidentalis; assay: Insecticidal activity against Frankliniella occidentalis R1 (western flower thrips) in compound treated sweet pepper leaf assessed as mortality at 50 mg/l at 25 +/- 2 degC by leaf dip method; format: functional; settings: R1, in Capsicum annuum, foliar
[18] = test system: Frankliniella occidentalis; assay: Insecticidal activity against Frankliniella occidentalis TFB (western flower thrips) in compound treated sweet pepper leaf assessed as mortality at 50 mg/l at 25 +/- 2 degC by leaf dip method; format: functional; settings: in Capsicum annuum, foliar
[19] = test system: Frankliniella occidentalis; assay: Insecticidal activity against Frankliniella occidentalis SPI5 (western flower thrips) in compound treated sweet pepper leaf assessed as mortality at 50 mg/l at 25 +/- 2 degC by leaf dip method; format: functional; settings: SPI5, in Capsicum annuum, foliar
[20] = test system: Frankliniella occidentalis; assay: Insecticidal activity against Frankliniella occidentalis TFB (western flower thrips) in compound treated sweet pepper leaf assessed as mortality at 216 mg/l at 25 +/- 2 degC by leaf dip method; format: functional; settings: in Capsicum annuum, foliar
[21] = test system: Frankliniella occidentalis; assay: Insecticidal activity against Frankliniella occidentalis TFA (western flower thrips) in compound treated sweet pepper leaf assessed as mortality at 216 mg/l at 25 +/- 2 degC by leaf dip method; format: functional; settings: in Capsicum annuum, foliar
[22] = test system: Frankliniella occidentalis; assay: Insecticidal activity against Frankliniella occidentalis R1 (western flower thrips) in compound treated sweet pepper leaf assessed as mortality at 216 mg/l at 25 +/- 2 degC by leaf dip method; format: functional; settings: R1, in Capsicum annuum, foliar
[23] = test system: Frankliniella occidentalis; assay: Insecticidal activity against Frankliniella occidentalis SPI5 (western flower thrips) in compound treated sweet pepper leaf assessed as mortality at 216 mg/l at 25 +/- 2 degC by leaf dip method; format: functional; settings: SPI5, in Capsicum annuum, foliar

Question: For `C/C(=N\C#N)N(C)Cc1ccc(Cl)nc1` [ACETAMIPRID], which LC50 [1] is on record?
Answer: 663 µg/mL (≈ 2980 µM)

Question: What about the RatioLC50 [2] of the same compound?
Answer: 0.2

Question: What about the RatioLC50 [3] of the same compound?
Answer: 0.2

Question: What about the LC50 [4] of the same compound?
Answer: 116 µg/mL (≈ 521 µM)

Question: And the LC50 [5]?
Answer: 119 µg/mL (≈ 534 µM)

Question: What does the source list for `O=[N+]([O-])/N=C1\NCCN1Cc1ccc(Cl)nc1` [IMIDACLOPRID]?
Answer: mortality at 150 µg/mL [6]: 6.7%; mortality at 150 µg/mL [7]: 3.3%; mortality at 150 µg/mL [8]: 0%; mortality at 150 µg/mL [9]: 10%

Question: Which mortality at 1000 µg/mL [10] does the source give for `CCCCOCCOCCOCc1cc2c(cc1CCC)OCO2` [PIPERONYL BUTOXIDE] here?
Answer: 10%

Question: Which LC50 [1] does the source give for `CN1COCN(Cc2cnc(Cl)s2)/C1=N\[N+](=O)[O-]` [THIAMETHOXAM] here?
Answer: 352 µg/mL (≈ 1210 µM)

Question: And the mortality at 50 µg/mL [11]?
Answer: 0%

Question: What about the mortality at 50 µg/mL [12] of the same compound?
Answer: 10%

Question: And the RatioLC50 [2]?
Answer: 4.8

Question: What about the RatioLC50 [13] of the same compound?
Answer: 1

Question: And the RatioLC50 [3]?
Answer: 0.8

Question: And the RatioLC50 [14]?
Answer: 3

Question: What about the LC50 [15] of the same compound?
Answer: 158 µg/mL (≈ 541 µM)

Question: What about the LC50 [16] of the same compound?
Answer: 209 µg/mL (≈ 717 µM)

Question: What about the mortality at 50 µg/mL [17] of the same compound?
Answer: 16.7%

Question: And the LC50 [4]?
Answer: 1670 µg/mL (≈ 5740 µM)

Question: And the mortality at 50 µg/mL [18]?
Answer: 20%

Question: What about the mortality at 50 µg/mL [19] of the same compound?
Answer: 13.3%

Question: And the LC50 [5]?
Answer: 298 µg/mL (≈ 1020 µM)

Question: With `N#C/N=C1\SCCN1Cc1ccc(Cl)nc1` [THIACLOPRID] as the compound, how does the mortality at 216 µg/mL [20] read?
Answer: 10%

Question: What about the mortality at 216 µg/mL [21] of the same compound?
Answer: 3.3%

Question: What about the mortality at 216 µg/mL [22] of the same compound?
Answer: 0%

Question: And the mortality at 216 µg/mL [23]?
Answer: 3.3%
